Patent publication US20240391862A1, “(1,4,5-TRISUBSTITUTED-1H-PYRAZOL-3-YL)OXY-2-ALKOXY ALKYL ACIDS AND THEIR DERIVATIVES, THEIR SALTS AND THEIR USE AS HERBICIDAL AGENTS” (Bayer AKtiengesellschaft, priority 2021, published 2024)

Legend:
ZEAMX = assay: Post-emergence herbicidal effect and crop plant compatibility, greenhouse pot test; format: in vivo, Zea mays; conditions: Zea mays, 504 h, one-leaf stage, rated visually after about 3 weeks vs untreated controls
Summary of the method: (§1)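 Sandy loam pots, greenhouse. One-leaf stage (2–3 wk after sowing) foliar spray; WP/EC in water + 0.5% additive, 600 l/ha; 20–320 g/ha. Visual score ~3 wk, 0–100% vs untreated.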

ABUTH = assay: Post-emergence herbicidal effect, greenhouse pot test; format: in vivo, Abutilon theophrasti; conditions: Abutilon theophrasti, 504 h, visual rating about 3 weeks after treatment, read-out: Post-emergence effect against ABUTH
Summary of the method: as §1

ALOMY = assay: as above; format: in vivo, Alopecurus myosuroides; conditions: Alopecurus myosuroides, 504 h, 320 g/ha, visual rating about 3 weeks after treatment, read-out: Post-emergence effect against ALOMY
Summary of the method: as §1

AVEFA = assay: as above; format: in vivo, Avena fatua; conditions: Avena fatua, 504 h, visual rating about 3 weeks after treatment, read-out: Post-emergence effect against AVEFA
Summary of the method: as §1

DIGSA = assay: as above; format: in vivo, Digitaria sanguinalis; conditions: Digitaria sanguinalis, 504 h, 320 g/ha, visual rating about 3 weeks after treatment, read-out: Post-emergence effect against DIGSA
Summary of the method: as §1

ECHCG = assay: as above; format: in vivo, Echinochloa crus-galli; conditions: Echinochloa crus-galli, 504 h; for pest or weed control at 80 g/ha / pest or weed control at 320 g/ha: read-out: Post-emergence effect against ECHCG in %
Summary of the method: as §1

LOLRI = assay: as above; format: in vivo, Lolium rigidum; conditions: Lolium rigidum, 504 h, read-out: Post-emergence effect against LOLRI in %
From the text: • ALOMY: Alopecurus myosuroides SETVI: Setaria viridis • AVEFA: Avena fatua POLCO: Fallopia convolvulus • AMARE: Amaranthus retroflexus ECHCG: Echinochloa crus-galli • LOLRJ: Lolium rigidum STEME: Stellaria media • VERPE: Veronica persica MATIN: Tripleurospermum inodorum • DIGSA: Digitaria sanguinalis ABUTH: Abutylon threophrasti • TRZAS: Triticum aestivum VIOTR: Viola tricolor • BRSNW: Brassica napus ZEAMX: Zea mays • PHBPU: Ipomoea purpurea GLXMA: Glycine max • ORYSA: Oryza sativa HORMU: Hordeum murinum
Seeds of monocotyledonous and dicotyledonous weeds and crop plants are placed in sandy loam in plastic or organic planting pots, covered with soil and cultivated in a greenhouse under controlled growth conditions. 2 to 3 weeks after sowing, the trial plants are treated at the one-leaf stage. The compounds of the invention, formulated in the form of wettable powders (WP) or as emulsion concentrates (EC), are then sprayed onto the green parts of the plants as aqueous suspension or emulsion with addition of 0.5% additive at a water application rate of 600 l/ha (converted). After the test plants have been kept in the greenhouse under optimum growth conditions for about 3 weeks, the activity of the preparations is rated visually in comparison to untreated controls. For example, 100% activity=the plants have died, 0% activity=like control plants.
Tables 20a to 38c below show the effects/crop compatibilities of selected compounds of the general formula (I) on various harmful plants at an application rate corresponding to 20 to 320 g/ha, which were obtained by the trial procedure specified above.

PHBPU = assay: as above; format: in vivo, Ipomoea purpurea; conditions: Ipomoea purpurea, 504 h, read-out: Post-emergence effect against PHBPU in %
Summary of the method: as §1

POLCO = assay: as above; format: in vivo, Fallopia convolvulus; conditions: Fallopia convolvulus, 504 h, read-out: Post-emergence effect against POLCO in %
Summary of the method: as §1

SETVI = assay: as above; format: in vivo, Setaria viridis; conditions: Setaria viridis, 504 h, read-out: Post-emergence effect against SETVI in %
Summary of the method: as §1

VERPE = assay: as above; format: in vivo, Veronica persica; conditions: Veronica persica, 504 h, read-out: Post-emergence effect against VERPE in %
Summary of the method: as §1

VIOTR = assay: as above; format: in vivo, Viola tricolor; conditions: Viola tricolor, 504 h, read-out: Post-emergence effect against VIOTR in %
Summary of the method: as §1

KCHSC = assay: as above; format: in vivo; conditions: 504 h, read-out: Post-emergence effect against KCHSC in %
Summary of the method: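 Greenhouse plants in sandy loam, sprayed post-emergence at the one-leaf stage (2–3 weeks after sowing) with WP or EC formulations in water plus 0.5% additive at 600 l/ha. Rates 20 to 320 g/ha. Activity rated visually after about 3 weeks against untreated controls (0% like control, 100% dead).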

MATIN = assay: as above; format: in vivo, Tripleurospermum inodorum; conditions: Tripleurospermum inodorum, 504 h, read-out: Post-emergence effect against MATIN in %
Summary of the method: as §1

SMILES	pest or weed control at 80 g/ha (ABUTH) [%]	pest or weed control at 320 g/ha (ABUTH) [%]	pest or weed control at 320 g/ha (ALOMY) [%]	pest or weed control at 80 g/ha (AVEFA) [%]	pest or weed control at 320 g/ha (AVEFA) [%]	pest or weed control at 320 g/ha (DIGSA) [%]	pest or weed control at 80 g/ha (ECHCG) [%]	pest or weed control at 320 g/ha (ECHCG) [%]	pest or weed control at 80 g/ha (LOLRI) [%]	pest or weed control at 320 g/ha (LOLRI) [%]	pest or weed control at 80 g/ha (PHBPU) [%]	pest or weed control at 320 g/ha (PHBPU) [%]	pest or weed control at 320 g/ha (POLCO) [%]	pest or weed control at 320 g/ha (SETVI) [%]	pest or weed control at 320 g/ha (VERPE) [%]	pest or weed control at 80 g/ha (VIOTR) [%]	pest or weed control at 320 g/ha (VIOTR) [%]	pest or weed control at 80 g/ha (KCHSC) [%]	pest or weed control at 320 g/ha (KCHSC) [%]	other results
CCOC(=O)C(OC)Oc1nn(-c2ncccc2F)c(-c2ccc(F)nc2)c1C1CC1 (stereo not drawn) [Example I-58]	80	80	90	80	90	80	90	90	90	90	80	90	80	90	80	80	80	90	90	plant injury at 20 g/ha (ZEAMX; 20 g/ha, read-out: Post-emergence effect at 20 g/ha against ZEAMX in %): 0%; plant injury at 80 g/ha (ZEAMX; 80 g/ha, read-out: Post-emergence effect at 80 g/ha against ZEAMX in %): 10%; pest or weed control at 20 g/ha (AVEFA; 20 g/ha): 80%; pest or weed control at 80 g/ha (POLCO; 80 g/ha): 80%
COC(=O)C(OC)Oc1nn(-c2ncccc2F)c(-c2cncc(F)c2)c1Br (stereo not drawn) [Example I-91]	80	80	80	90	90	90	80	90	90	90	80	80	80	80	80	80	80	80	90	pest or weed control at 20 g/ha (ECHCG; 20 g/ha, visual rating about 3 weeks after treatment, read-out: Post-emergence effect against ECHCG): 80%; pest or weed control at 80 g/ha (MATIN; 80 g/ha): 80%; pest or weed control at 320 g/ha (MATIN; 320 g/ha): 80%; pest or weed control at 20 g/ha (PHBPU; 20 g/ha): 80%; pest or weed control at 20 g/ha (SETVI; 20 g/ha): 80%; pest or weed control at 80 g/ha (SETVI; 80 g/ha): 80%; pest or weed control at 80 g/ha (VERPE; 80 g/ha): 80%; pest or weed control at 20 g/ha (VIOTR; 20 g/ha): 80%; pest or weed control at 20 g/ha (KCHSC; 20 g/ha): 80%
